Experimental data published in US4828979A, “Nucleotide analogs for nucleic acid labeling and detection” (Life Technologies, Inc., priority 1984, dated 1989).
Read-outs that look alike come from different tables or passages of the source.

Legend:
[1] = test system: human β-globin gene; experiment: Detection of single-copy gene sequence in Southern blot of Eco RI digested human DNA; details: NBT/BCIP dye system; probe 100 ng/ml, hybridization 16-24 hours
Experimental: A plasmid containing the 1.1 Kb Mst II fragment of the human β-globin gene in the Eco RI site of pBR322 (obtained from Dr. Y. W. Kan, UCSF) was nick translated with either Biotin-n-dATP in the presence of dTTP, dCTP, and dGTP, or Biotin-n-dCTP in the presence of dATP, dTTP, and dGTP. All nucleotides were at 20 μM and the reaction was allowed to proceed for 90 minutes. Conditions for nick translation of the DNA probe and purification of the biotin-labeled material are given in the manual of the BRL DNA Detection System.
The biotinylated probe was hybridizedto a Southern blot of Eco RI digested human DNA or to an Eco RI digest of the plasmid DNA. Probe concentration was 100 ng/ml and hybridization was allowed to proceed for 16-24 hours under conditions described by Leary et al. (Leary, J. J., Brigati, D. J. and Ward, D. C. (1983) Proc. Natl. Acad. Sci. USA 80 4045-4049). The filter was developed with the BRL Detection System as described in the system's instruction manual. The single copy β-globin gene Fragment at 5.2 Kb was observed within 3 hours of staining with the NBT/BCIP dye system for DNA probes labeled with Biotin-n-dATP where n=3, 7, 10 or 14 and Biotin-n-dCTP where n=7 or 10.

[2] = target: T1, DNA polymerase I (Escherichia coli, UniProt P00582); experiment: Incorporation of dATP/dCTP and analogs into plasmid DNA by nick translation (3H-dGTP tracer); format: biochemical, E. coli; details: 1.5 h, tracer 3H-dGTP incorporation relative to reaction mixture containing dNTP's and no derivatives, duplicate figures = two determinations
T1 construct: purchased BRL (Nick Translation System)
T1 sequence (P00582 whole entry): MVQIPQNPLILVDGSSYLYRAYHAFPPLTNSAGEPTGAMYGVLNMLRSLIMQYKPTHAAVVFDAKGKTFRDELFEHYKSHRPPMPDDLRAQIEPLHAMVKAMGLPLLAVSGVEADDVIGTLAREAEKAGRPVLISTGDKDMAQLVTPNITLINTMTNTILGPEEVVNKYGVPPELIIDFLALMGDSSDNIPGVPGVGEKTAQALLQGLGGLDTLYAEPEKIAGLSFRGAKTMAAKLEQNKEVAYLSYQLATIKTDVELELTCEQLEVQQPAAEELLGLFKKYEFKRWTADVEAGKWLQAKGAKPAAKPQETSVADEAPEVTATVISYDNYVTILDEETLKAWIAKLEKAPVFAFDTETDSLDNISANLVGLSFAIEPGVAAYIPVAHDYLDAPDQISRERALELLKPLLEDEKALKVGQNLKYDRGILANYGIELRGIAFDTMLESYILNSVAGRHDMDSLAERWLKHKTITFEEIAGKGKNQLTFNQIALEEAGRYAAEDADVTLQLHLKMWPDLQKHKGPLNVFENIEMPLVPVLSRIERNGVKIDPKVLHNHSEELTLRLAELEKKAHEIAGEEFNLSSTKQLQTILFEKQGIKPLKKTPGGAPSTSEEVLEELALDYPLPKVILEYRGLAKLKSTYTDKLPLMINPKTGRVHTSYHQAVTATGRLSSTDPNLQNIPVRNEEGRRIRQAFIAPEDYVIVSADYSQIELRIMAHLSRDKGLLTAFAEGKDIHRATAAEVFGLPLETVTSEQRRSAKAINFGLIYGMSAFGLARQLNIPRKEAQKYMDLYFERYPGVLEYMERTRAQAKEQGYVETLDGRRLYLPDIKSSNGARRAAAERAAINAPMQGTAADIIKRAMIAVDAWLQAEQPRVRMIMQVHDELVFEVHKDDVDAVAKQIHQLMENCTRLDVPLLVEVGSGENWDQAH
Experimental: Incorporation into Plasmid DNA of Biotinylated dATP Derivatives
The time course and levels of incorporation were studied as a function of linker size.
(§1) Using the BRL Nick Translation System, dATP and various derivatives were incorporated into plasmid DNA.
(§2) At each time point of interest, 2 μl from the reaction mixture was withdrawn, spotted on glass fiber filters (GF/C), washed in 10% trichloroacetic acid (TCA) once and 5% TCA twice, and dried after washing in alcohol. The filters were counted in a liquid scintillation counter.
The relative levels of incorporation of the modified nucleotides at the 90 minute time point are seen in Table 1 below, in which the data are reported as percent incorporation of the tracer radio-nucleotide (^3 H-dGTP) relative to incorporation resulting from a reaction mixture containing dNTP's and no derivatives. Duplicate figures indicate two determinations. Results for dCTP and analogs appear also.

[3] = test system: streptavidin-biotin alkaline phosphatase system; experiment: Sensitivity of detection of probes biotinylated with various linker lengths, spotted on nitrocellulose
Experimental: (§3) The reaction volume was 1 ml. At 10 minutes, 30 minutes and 90 minutes, 200 μl of the reaction mixture was removed and the reaction quenched with 30 mM EDTA. The DNA from each sample was purified on a Sephade® G-50 column. […] In Table 2, "+" or "-" indicates the presence or absence, respectively of visible spots; it can be seen that a high degree of sensitivity exists even with a relatively low level of biotin incorporation.
Probes biotinylated with various linker lengths were then compared for sensitivity of detection. Plasmid DNA was nick translated according to the described protocol with Biotin-n-dATP, for n=7, 14, 3 or 10. The biotinylated DNA's were then purified from unincorporated nucleotides by gel filtration on Sephadex® G-50 in 1×SSC (0.15 M NaCl, 0.015 M sodium citrate) containing 0.1% SDS. The biotinylated DNA was diluted into 6×SSC containing 0.2 μg/μl sheared herring sperm DNA and spotted onto nitrocellulose paper in the range of 50 pg/5 μl to 1 pg/5 μl. After 30 minutes' incubation in the NBT/BCIP dye mixture of the BRL DNA Detection System, 2 pg spots of Bio-7, 14 or 10-dATP labeled probe and a 5 pg spot of Bio-3-dATP labeled probe were visible. After 1.5 hours, the 1 pg spot of each biotin-dATP-labeled probe was visible.

[4] = target: T1, DNA polymerase I; experiment: Incorporation using radiolabelled biotin-nucleotide (32P-dCTP and 3H-biotin); format: biochemical, E. coli; details: 20 μM [3H-biotin]-7-dATP; FIG. 6
Experimental: as §1, §2
Using the same protocol, incorporation was then performed using a radiolabelled biotin-nucleotide. Thus, the level of biotin incorporation was directly determined. 200 μl of the reaction mixture contained 10 μCi of α-^32 PdCTP and either 20 μM dATP or 20 μM [^3 H-biotin]-7-dATP. […] The lower curves show the time courses of incorporation of ^32 P-dCMP and the tritium labelled and biotinylated derivative of dAMP.

[5] = target: T1, DNA polymerase I; experiment: Incorporation of various levels of Bio-7-dATP into plasmid DNA by nick translation; format: biochemical, E. coli
Experimental: as §1
To examine the detection sensitivity of probes made from the biotinylated nucleotides of the present invention, incorporation of various levels of Bio-7-dATP into plasmid DNA was carried out by nick translation as previously disclosed.
as §3

[6] = 90 min, 15° C., read-out: % Incorporation (90 min.)
[7] = after 30 minutes' incubation in NBT/BCIP dye mixture

Compound | time of staining within which single copy β-globin gene fragment at 5.2 Kb was observed [1] [h] | activity at 20 µM [2, 6] [%] | spot of labeled probe visible (sensitivity) [3, 7] [pg] | further results
O=C(CCCC[C@@H]1SC[C@@H]2NC(=O)N[C@@H]21)NCCCCCCNc1ccn([C@H]2C[C@H](O)[C@@H](COP(=O)(O)OP(=O)(O)OP(=O)(O)O)O2)c(=O)n1 [Biotin-7-dCTP] | ≤ 3 | 44 | – | –
O=C(CCCC[C@@H]1SC[C@@H]2NC(=O)N[C@@H]21)NCCCCCCNC(=O)CNc1ncnc2c1ncn2[C@H]1C[C@H](O)[C@@H](COP(=O)(O)OP(=O)(O)OP(=O)(O)O)O1 [Biotin-10'-dATP] | – | 6.9 | – | –
O=C(CCCC[C@@H]1SC[C@@H]2NC(=O)N[C@@H]21)NCCCCCC(=O)NCCNc1ccn([C@H]2C[C@H](O)[C@@H](COP(=O)(O)OP(=O)(O)OP(=O)(O)O)O2)c(=O)n1 [Biotin-10-dCTP] | ≤ 3 | 22 | 2 | spot of labeled probe visible (sensitivity) ([3]; after 1.5 hours in NBT/BCIP dye mixture): 1 pg
O=C(CCCC[C@@H]1SC[C@@H]2NC(=O)N[C@@H]21)NCCNc1ccn([C@H]2C[C@H](O)[C@@H](COP(=O)(O)OP(=O)(O)OP(=O)(O)O)O2)c(=O)n1 [Biotin-3-dCTP] | – | 12 | – | –
O=C(CCCC[C@@H]1SC[C@@H]2NC(=O)N[C@@H]21)NCCCCCCNc1ncnc2c1ncn2[C@H]1C[C@H](O)[C@@H](COP(=O)(O)OP(=O)(O)OP(=O)(O)O)O1 [[^3 H-biotin]-7-dATP] | – | – | – | correspondence of time courses of incorporation of 32P-dCMP and the tritium labelled and biotinylated derivative of dAMP [4]: close correspondence
N^6 -(6-hexylamidobiotin-2'-deoxyadenosine 5'-monophosphate [Bio-7-dAMP] | – | – | – | Bio-7-dAMP per Kb ([5]; 10 min nick translation): 7 per Kb; Bio-7-dAMP per Kb ([5]; 30 min nick translation): 35 per Kb; Bio-7-dAMP per Kb ([5]; 90 min nick translation): 98 per Kb
NCCCCCCNc1ncnc2c1ncn2[C@H]1C[C@H](O)[C@@H](COP(=O)(O)OP(=O)(O)OP(=O)(O)O)O1 [N^6 --aminohexyldATP, N^6-(6-aminohexyl)dATP] | – | – | – | activity at 20 µM ([2]; read-out: % Incorporation (90 min.), 90 min, 15° C.): 67%
O=C(CCCC[C@@H]1SC[C@@H]2NC(=O)N[C@@H]21)NCCNc1ncnc2c1ncn2[C@H]1C[C@H](O)[C@@H](COP(=O)(O)OP(=O)(O)OP(=O)(O)O)O1 [Biotin-3-dATP] | ≤ 3 | 29 | 5 | –
O=C(CCCCCNC(=O)CCCC[C@@H]1SC[C@@H]2NC(=O)N[C@@H]21)NCCCCCCNc1ccn([C@H]2C[C@H](O)[C@@H](COP(=O)(O)OP(=O)(O)OP(=O)(O)O)O2)c(=O)n1 [Biotin-14-dCTP] | – | 42 | – | –
O=C(CCCC[C@@H]1SC[C@@H]2NC(=O)N[C@@H]21)NCCCCCCNc1ncnc2c1ncn2[C@H]1C[C@H](O)[C@@H](COP(=O)(O)OP(=O)(O)OP(=O)(O)O)O1 [Biotin-7-dATP, N^6-(6-hexylamidobiotin)-2'-deoxyadenosine 5'-triphosphate] | ≤ 3 | 53 | 2 | –
O=C(CCCCCNC(=O)CCCC[C@@H]1SC[C@@H]2NC(=O)N[C@@H]21)NCCCCCCNC(=O)CNc1ncnc2c1ncn2[C@H]1C[C@H](O)[C@@H](COP(=O)(O)OP(=O)(O)OP(=O)(O)O)O1 [Biotin-17-dATP] | – | 6.7 | – | –
NCCCCCCNc1ccn([C@H]2C[C@H](O)[C@@H](COP(=O)(O)OP(=O)(O)OP(=O)(O)O)O2)c(=O)n1 [N^4 --(6-aminohexyl)dCTP, N^4-(6-aminohexyl)dCTP] | – | 74 | – | –
O=C(CCCCCNC(=O)CCCC[C@@H]1SC[C@@H]2NC(=O)N[C@@H]21)NCCCCCCNc1ncnc2c1ncn2[C@H]1C[C@H](O)[C@@H](COP(=O)(O)OP(=O)(O)OP(=O)(O)O)O1 [Biotin-14-dATP] | ≤ 3 | 33 | 2 | –
Nc1ncnc2c1ncn2[C@H]1C[C@H](O)[C@@H](COP(=O)(O)OP(=O)(O)OP(=O)(O)O)O1 [dATP, reference compound] | – | 100 | – | –
O=C(CCCC[C@@H]1SC[C@@H]2NC(=O)N[C@@H]21)NCCCCCC(=O)NCCNc1ncnc2c1ncn2[C@H]1C[C@H](O)[C@@H](COP(=O)(O)OP(=O)(O)OP(=O)(O)O)O1 [Biotin-10-dATP] | ≤ 3 | 15 | 2 | –
Nc1ccn([C@H]2C[C@H](O)[C@@H](COP(=O)(O)OP(=O)(O)OP(=O)(O)O)O2)c(=O)n1 [dCTP, reference compound] | – | 100 | – | –
